In patent US7501410B2, “Methods of inhibiting BTK and SYK protein kinases” (Roche Palo Alto LLC, priority 2006, dated 2009):

Tests used:
[1] = target: T1, Bruton's Tyrosine Kinase (Btk) (Homo sapiens, UniProt Q06187); test: Determination of IC50 of Bruton's Tyrosine Kinase (Btk) inhibition, 33P filtration assay; assay type: biochemical; settings: His-tagged full-length Btk, 100 μM ATP
T1 construct: 5-10 nM Btk enzyme (His-tagged, full-length); His tag
Outline: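 Full-length His-tagged Btk (5-10 nM) preincubated 10 min at RT with compounds, then 30 min at 30° C with 30 μM biotinylated SH2 peptide, 100 μM ATP plus ^33P ATP, Mn/Mg in imidazole buffer pH 7.2. Product captured on streptavidin beads, counted by scintillation; 10-point half-log IC50 from 100 μM, background without substrate.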

Ramos cells = test: Inhibition of B-cell activation, B cell FLIPR assay in Ramos cells; assay type: cell-based; settings: Homo sapiens, anti-IgM stimulated intracellular calcium increase
Description: Inhibition of B-cell Activation—B Cell FLIPR Assay in Ramos Cells
The B cell FLIPR assay is a cell based functional method of determining the effect of potential inhibitors of the intracellular calcium increase from stimulation by an anti-IgM antibody. Ramos cells (human Burkitt's lymphoma cell line. ATCC-No. CRL-1596) were cultivated in Growth Media (described below). One day prior to assay, Ramos cells were resuspended in fresh growth media (same as above) and set at a concentration of 0.5×10^6/mL in tissue culture flasks. On day of assay, cells were counted and set at a concentration of 1×10^6/mL in growth media supplemented with 1 μM FLUO-3 AM(TefLabs Cat-No. 0116, prepared in anhydrous DMSO and 10% Pluronic acid) in a tissue culture flask, and incubated at 37° C. (4% CO2) for 1 h. To remove extracellular dye, cells were collected by centrifugation (5 min, 1000 rpm), resuspended in FLIPR buffer (described below) at 1×10^6 cells/mL and then dispensed into 96-well poly-D-lysine coated black/clear plates (BD Cat-No. 356692) at 1×10^5 cells per well. Test compounds at seven concentrations ranging from 100 μM to 0.03 μM were added, and allowed to incubate with cells for 30 min at RT. Ramos cell Ca^2+ signaling was stimulated by the addition of 10 μg/mL anti-IgM (Southern Biotech, Cat-No. 2020-01) and measured on a FLIPR (Molecular Devices, captures images of 96 well plates using a CCD camera with an argon laser at 480 nm excitation).
Growth Medium: RPMI 1640 medium with L-glutamine (Invitrogen, Cat-No. 61870-010), 10% Fetal Bovine Serum (FBS, Summit Biotechnology Cat-No. FP-100-05); 1 mM Sodium Pyruvate (Invitrogen Cat. No. 11360-070).
FLIPR buffer: HBSS (Invitrogen, Cat-No. 141175-079),2 mM CaCl2 (Sigma Cat-No. C-4901), HEPES (Invitrogen, Cat-No. 15630-080), 2.5 mM Probenecid (Sigma, Cat-No. P-8761), 0.1% BSA (Sigma, Cat-No. A-7906), 11 mM Glucose (Sigma, Cat-No. G-7528).
In order to achieve the highest final assay concentration of 100 μM, 24 μL of 10 mM compound stock solution (made in DMSO) is added directly to 576 μL of FLIPR buffer. The test compounds are diluted in FLIPR Buffer (using Biomek 2000 robotic pipettor) resulting in the following dilution scheme: vehicle, 1.00×10^−4 M, 1.00×10^−5, 3.16×10^−6, 1.00×10^−6, 3.16×10^−7, 1.00×10^−7, 3.16×10^−8.
Intracellular increases in calcium were reported using a max-min statistic (subtracting the resting baseline from the peak caused by addition of the stimulatory antibody using a Molecular Devices FLIPR control and statistic exporting software. The IC50 was determined using a non-linear curve fit (GraphPad Prism software). Representative results are in Table 1.

T1 sequence (Q06187 whole entry): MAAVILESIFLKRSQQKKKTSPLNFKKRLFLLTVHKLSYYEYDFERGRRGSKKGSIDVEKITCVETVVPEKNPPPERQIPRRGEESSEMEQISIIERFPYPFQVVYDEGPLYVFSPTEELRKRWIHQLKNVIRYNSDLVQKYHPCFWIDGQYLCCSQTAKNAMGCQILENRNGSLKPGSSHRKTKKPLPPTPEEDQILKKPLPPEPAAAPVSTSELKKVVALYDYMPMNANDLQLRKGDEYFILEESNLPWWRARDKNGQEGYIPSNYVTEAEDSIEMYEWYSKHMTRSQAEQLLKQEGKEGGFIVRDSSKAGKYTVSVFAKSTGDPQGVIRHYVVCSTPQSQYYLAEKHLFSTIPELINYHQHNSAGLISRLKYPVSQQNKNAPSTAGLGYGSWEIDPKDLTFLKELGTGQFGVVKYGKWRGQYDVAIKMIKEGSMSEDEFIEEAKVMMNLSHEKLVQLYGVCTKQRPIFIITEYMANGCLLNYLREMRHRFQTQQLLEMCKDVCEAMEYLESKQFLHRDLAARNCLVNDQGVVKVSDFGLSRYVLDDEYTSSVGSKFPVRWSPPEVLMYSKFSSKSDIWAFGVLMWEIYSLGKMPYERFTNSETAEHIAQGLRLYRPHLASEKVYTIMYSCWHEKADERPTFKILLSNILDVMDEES

Row | SMILES | IC50 [1] | IC50 (Ramos cells)
1 | Cc1cc(Nc2nn(C(C)C)c(=O)c3cc(N4CCN(C)CC4)ccc23)[nH]n1 [Example F-5, 2-Isopropyl-7-(4-methyl-piperazin-1-yl)-4-(5-methyl-2H-pyrazol-3-ylamino)-2H-phthalazin-1-one] | 0.102 µM | 0.41 µM
2 | Cc1cc(Nc2nn(C(C)C)c(=O)c3cc(N4CCOCC4)ccc23)n[nH]1 [Example F-1, 2-Isopropyl-4-(5-methyl-1H-pyrazol-3-ylamino)-7-morpholino-2H-phthalazin-1-one] | 0.275 µM | 1.2 µM
3 | Cc1cc(Nc2nn(C(C)C)c(=O)c3cc(OCCN(C)C)ccc23)n[nH]1 [Example ZD-5, 7-(2-Dimethylamino-ethoxy)-2-isopropyl-4-(5-methyl-1H-pyrazol-3-ylamino)-2H-phthalazin-1-one] | 0.186 µM | 0.575 µM
